Experimental findings from patent publication US7041698B2, “Hepatitis C virus inhibitors” (Bristol-Myers Squibb Company, priority 2002, dated 2006) are described below.

Like-named read-outs stand apart in the source and are kept apart here.

In test [1] the test system is HCV replicon in Huh7 cells. Briefly: HCV replicon cell-based assay. The conditions noted are these: HCV replicon, 4 days, read-out: EC50 range. On the set-up: species or system HCV strain 1B. From the text:
HCV Replicon Cell-based Assay
An HCV replicon whole cell system was established as described by Lohmann V, Komer F, Koch J, Herian U, Theilmann L, Bartenschlager R., Science 285(5424):110–3 (1999). This system enabled us to evaluate the effects of our HCV Protease compounds on HCV RNA replication. Briefly, using the HCV strain 1B sequence described in the Lohmann paper (Assession number:AJ238799), an HCV cDNA was generated encoding the 5′ internal ribosome entry site (IRES), the neomycin resistance gene, the EMCV (encephalomyocarditis viurs)-IRES and the HCV nonstructural proteins, NS3-NS5B, and 3′ non-translated region (NTR). In vitro transcripts of the cDNA were transfected into the human hepatoma cell line, Huh7. […] Resulting cell lines were characterized for positive and negative strand RNA production and protein production over time.
Huh7 cells, constitutively expressing the HCV replicon, were grown in Dulbecco's Modified Eagle Media (DMEM) containing 10% Fetal calf serum (FCS) and 1 mg/ml G418 (Gibco-BRL). Cells were seeded the night before (1.5×10^4 cells/well) in 96-well tissue-culture sterile plates. Compound and no compound controls were prepared in DMEM containing 4% FCS, 1:100 Penicillin/Streptomysin, 1:100 L-glutamine and 5% DMSO in the dilution plate (0.5% DMSO final concentration in the assay). Compound/DMSO mixes were added to the cells and incubated for 4 days at 37° C. After 4 days, plates were rinsed thoroughly with Phosphate-Buffered Saline (PBS) (3 times 150 μl). The cells were lysed with 25 μl of a lysis assay reagent containing the FRET peptide (RET S1, as described for the in vitro enzyme assay). The lysis assay reagent was made from 5× cell Luciferase cell culture lysis reagent (Promega #E153A) diluted to 1× with distilled water, NaCl added to 150 mM final, the FRET peptide diluted to 10 μM final from a 2 mM stock in 100% DMSO. The plate was then placed into the Cytofluor 4000 instrument which had been set to 340 nm excitation/490 emission, automatic mode for 21 cycles and the plate read in a kinetic mode. EC50 determinations were carried out as described for the IC50 determinations.
As a secondary assay, EC50 determinations from the replicon FRET assay were confirmed in a quantitative RNA assay. Cells were lyzed using the Rneasy kit (Qiagen). Purified total RNA was normalized using RiboGreen (Jones L J, Yue S T, Cheung C Y, Singer V L, Anal. Chem., 265(2):368–74 (1998)) and relative quantitation of HCV RNA expression assessed using the Taqman procedure (Kolykhalov A A, Mihalik K, Feinstone S M, Rice C M, Journal of Virology 74, 2046–2051 (2000)) and the Platinum Quantitative RT-PCR Thermoscript One-Step kit (Invitrogen cat # 11731-015). Briefly, RNA made to a volume of 5 μl (<1 ng) was added to a 20 μl Ready-Mix containing the following: 1.25× Thermoscript reaction mix (containing Magnesium Sulfate and 2-deoxynucleoside 5′-triphosphates (dNTPs)), 3 mM dNTPs, 200 nM forward primer (sequence: 5′-[…]-3′), 600 nM reverse primer (5′-[…]-3′), 100 nM probe (5′-6-FAM-[…]-BHQ-1-3′)(FAM: Fluorescein-aminohexyl amidite; BHQ: Black Hole Quencher), 1 μM Rbx reference dye (Invitrogen cat # 12223-012) and Thermoscript Plus Platinum Taq polymerase mixture. All primers were designed with ABI Prism 7700 software and obtained from Biosearch Technologies, Novato, Calif. Samples containing known concentrations of HCV RNA transcript were run as standards. Using the following cycling protocol (50° C., 30 min; 95° C., 5 min; 40 cycles of 95° C., 15 sec, 60° C., 1 min), HCV RNA expression was quantitated as described in the Perkin Elmer manual using the ABI Prism 7700 Sequence Detector.
The luciferase reporter assay was also used to confirm compound potency in the replicon. Utilization of a replicon luciferase reporter assay was first described by Krieger et al (Krieger N, Lohmann V, and Bartenschlager R, J. Virol. 75(10):4614–4624 (2001)). […]
For orientation: Replicon systems follow genome replication, usually without infectious particles.

Test [2] addresses T1, HCV NS3/4A protease complex (UniProt P27958, C1454S/C1711G, species not given).
T1 construct: fused on or other part: Three-lysine solubilising tail at the C-terminus of NS4A
Put plainly: Recombinant HCV NS3/4A protease complex FRET peptide assay (strain not stated). The test is classed as biochemical. An excerpt: Recombinant HCV NS3/4A Protease Complex FRET Peptide Assay
The purpose of this in vitro assay was to measure the inhibition of HCV NS3 protease complexes, derived from the BMS, H77C or J416S strains, as described below, by compounds of the present invention. This assay provides an indication of how effective compounds of the present invention would be in inhibiting HCV proteolytic activity.
Serum from an HCV-infected patient was obtained from Dr. T. Wright, San Francisco Hospital. An engineered full-length cDNA (compliment deoxyribonucleic acid) template of the HCV genome (BMS strain) was constructed from DNA fragments obtained by reverse transcription-PCR (RT-PCR) of serum RNA (ribonucleic acid) and using primers selected on the basis of homology between other genotype 1a strains. From the determination of the entire genome sequence, a genotype 1a was assigned to the HCV isolate according to the classification of Simmonds et al. (See P Simmonds, K A Rose, S Graham, S W Chan, F McOmish, B C Dow, E A Follett, P L Yap and H Marsden, J. Clin. Microbiol., 31(6), 1493–1503 (1993)). […] The infectious clones, H77C (1a genotype) and J4L6S (1b genotype) were obtained from R. Purcell (NIH) and the sequences are published in Genbank (AAB67036, see Yanagi, M., Purcell, R. H., Emerson, S. U. and Bukh, J. Proc. Natl. Acad. Sci. U.S.A. 94(16),8738–8743 (1997); AF054247, see Yanagi, M., St Claire, M., Shapiro, M., Emerson, S. U., Purcell, R. H. and Bukh, J, Virology 244 (1), 161–172. (1998)).
The BMS, H77C and J4L6S strains were used for production of recombinant NS3/4A protease complexes. DNA encoding the recombinant HCV NS3/4A protease complex (amino acids 1027 to 1711) for these strains were manipulated as described by P. Gallinari et al. (see Gallinari P, Paolini C, Brennan D, Nardi C, Steinkuhler C, De Francesco R. Biochemistry. 38(17):5620–32, (1999)). Briefly, a three-lysine solubilizing tail was added at the 3′-end of the NS4A coding region. The cysteine in the P1 position of the NS4A-NS4B cleavage site (amino acid 1711) was changed to a glycine to avoid the proteolytic cleavage of the lysine tag. Furthermore, a cysteine to serine mutation was introduced by PCR at amino acid position 1454 to prevent the autolytic cleavage in the NS3 helicase domain. The variant DNA fragment was cloned in the pET21b bacterial expression vector (Novagen) and the NS3/4A complex was expressed in Escherichia. coli strain BL21 (DE3) (Invitrogen) following the protocol described by P. Gallinari et al. (see Gallinari P, Brennan D, Nardi C, Brunetti M, Tomei L, Steinkuhler C, De Francesco R., J. Virol. 72(8):6758–69 (1998)) with modifications. Briefly, NS3/4A expression was induced with 0.5 mM Isopropyl β-D-1-thiogalactopyranoside (IPTG) for 22 hr at 20° C. A typical fermentation (10L) yielded approximately 80 g of wet cell paste. The cells were resuspended in lysis buffer (10 mL/g) consisting of 25 mM N-(2-Hydroxyethyl)Piperazine-N′-(2-Ethane Sulfonic acid) (HEPES), pH7.5, 20% glycerol, 500 mM Sodium Chloride (NaCl), 0.5% Triton-X100, 1 ug/ml lysozyme, 5 mM Magnesium Chloride (MgCl2), lug/ml Dnasel, 5 mM β-Mercaptoethanol (βME), Protease inhibitor—Ethylenediamine Tetraacetic acid (EDTA) free (Roche), homogenized and incubated for 20 mins at 4° C. The homogenate was sonicated and clarified by ultra-centrifugation at 235000 g for 1 hr at 4° C. Imidazole was added to the supernatant to a final concentration of 15 mM and the pH adjusted to 8.0. The crude protein extract was loaded on a Nickel-Nitrilotriacetic acid (Ni-NTA) column pre-equilibrated with buffer B (25 mM HEPES, pH 8.0, 20% glycerol, 500 mM NaCl, 0.5% Triton-X100, 15 mM imidazole, 5 mM βME). The sample was loaded at a flow rate of 1 mL/min. The column was washed with 15 column volumes of buffer C (same as buffer B except with 0.2% Triton-X100). The protein was eluted with 5 column volumes of buffer D (same as buffer C except with 200 mM Imidazole). […]

[3] abbreviates: HCV NS3/4A protease enzyme assay, read-out: IC50 range.

As usually defined, the EC50 is the concentration giving half of the maximal effect. On to `C=CC1C[C@]1(NC(=O)[C@@H]1C[C@@H](OC(=O)Nc2ccccc2/C(=N/O)c2ccccc2)CN1C(=O)[C@@H](NC(=O)OC(C)(C)C)C(C)(C)C)C(=O)NS(=O)(=O)C1CC1` (single isomer, unassigned) [Compound 77a], for which the EC50 in test [1] is 1000 to 10000 nM. Moreover, the IC50 in test [2] (setting [3]) was 100 to 1000 nM.

Consider `C=CC1C[C@]1(NC(=O)[C@@H]1C[C@@H](OC(=O)Nc2ccccc2/C(=N/O)c2ccccc2)CN1C(=O)[C@@H](NC(=O)OC(C)(C)C)C(C)(C)C)C(=O)NS(=O)(=O)C1CC1` (single isomer, unassigned) [Compound 77b], for which, in test [1], the EC50 was above 10000 nM. The IC50 in test [2] (setting [3]) lay in the range of 100 to 1000 nM.

As for `C=CC1C[C@]1(NC(=O)[C@@H]1C[C@@H](OC(=O)N(C)c2ccccc2)CN1C(=O)[C@@H](NC(=O)OC(C)(C)C)C(C)(C)C)C(=O)NS(=O)(=O)C1CC1` (stereo partly drawn) [Compound 1, BocNH-P3(t-BuGly)-P2(Hyp(O—CO(N-methyl,N-phenyl)))-P1(1R,2S VinylAcca)—CONHSO2Cyclopropane], in test [1] (Hepatitis C virus, Huh-7, 96 h), the EC50 fell in the range of 1000 to 10000 nM. Also, the IC50 in test [2] (setting [3]) was 100 to 1000 nM.

With `C=CC1C[C@]1(NC(=O)[C@@H]1C[C@@H](OC(=O)NCc2ccccc2C)CN1C(=O)[C@@H](NC(=O)OC(C)(C)C)C(C)(C)C)C(=O)NS(=O)(=O)C1CC1` (stereo partly drawn) [Compound 2, BocNH-P3(t-BuGly)-P2(Hyp(O—CO(NH—(2-methylbenzyl))))-P1(1R,2S VinylAcca)—CONHSO2Cyclopropane], in test [1] (Hepatitis C virus, Huh-7, 96 h), the EC50 fell in the range of 1000 to 10000 nM. The IC50 in test [2] (setting [3]) lay within 100 to 1000 nM.

Regarding `C=CC1C[C@]1(NC(=O)[C@@H]1C[C@@H](OC(=O)N[C@@H]2C[C@H]2c2ccccc2)CN1C(=O)[C@@H](NC(=O)OC(C)(C)C)C(C)(C)C)C(=O)NS(=O)(=O)C1CC1` (stereo partly drawn) [Compound 3, BocNH-P3(t-BuGly)-P(Hyp(O—CO(NH-2(trans)-phenylcyclopropyl)))-P1(1R,2S VinylAcca)—CONHSO2Cyclopropane], the EC50 in test [1] (Hepatitis C virus, Huh-7, 96 h) fell in the range of 1000 to 10000 nM. Besides, the IC50 in test [2] (setting [3]) was below 100 nM.

With `C=CC1C[C@]1(NC(=O)[C@@H]1C[C@@H](OC(=O)N2CCOCC2)CN1C(=O)[C@@H](NC(=O)OC(C)(C)C)C(C)(C)C)C(=O)NS(=O)(=O)C1CC1` (stereo partly drawn) [Compound 4, BocNH-P3(t-BuGly)-P2(Hyp(O—CO—(4-morpholino)))-P1(1R,2S VinylAcca)—CONHSO2Cyclopropane], the EC50 in test [1] (Hepatitis C virus, Huh-7, 96 h) is above 10000 nM. Besides, the IC50 in test [2] (setting [3]) is 100 to 1000 nM.

For the compound `C=CCN(CC=C)C(=O)O[C@@H]1C[C@@H](C(=O)N[C@]2(C(=O)NS(=O)(=O)C3CC3)CC2C=C)N(C(=O)[C@@H](NC(=O)OC(C)(C)C)C(C)(C)C)C1` (stereo partly drawn) [Compound 5, BocNH-P3(t-BuGly)-P2(Hyp(O—CO(N,N-diallyl)))-P1(1R,2S VinylAcca)—CONHSO2Cyclopropane], the EC50 in test [1] (Hepatitis C virus, Huh-7, 96 h) is 1000 to 10000 nM. In test [2] (setting [3]), the IC50 lay in the range of 100 to 1000 nM.

Take `C=CC1C[C@]1(NC(=O)[C@@H]1C[C@@H](OC(=O)NC2CCCCC2)CN1C(=O)[C@@H](NC(=O)OC(C)(C)C)C(C)(C)C)C(=O)NS(=O)(=O)C1CC1` (stereo partly drawn) [Compound 6, BocNH-P3(t-BuGly)-P2(Hyp(O—CO(NH-cyclohexyl)))-P1(1R,2S VinylAcca)—CONHSO2Cyclopropane]: the EC50 in test [1] (Hepatitis C virus, Huh-7, 96 h) was 1000 to 10000 nM. The IC50 in test [2] (setting [3]) was below 100 nM.

Consider `C=CC1C[C@]1(NC(=O)[C@@H]1C[C@@H](OC(=O)NCCc2ccccc2)CN1C(=O)[C@@H](NC(=O)OC(C)(C)C)C(C)(C)C)C(=O)NS(=O)(=O)C1CC1` (stereo partly drawn) [Compound 7, BocNH-P3(t-BuGly)-P2(Hyp(O—CO(NH-phenethyl)))-P1(1R,2S VinylAcca)—CONHSO2Cyclopropane], for which the half-maximal effective concentration (EC50) in test [1] (Hepatitis C virus, Huh-7, 96 h) lay in the range of 1000 to 10000 nM. Besides, the IC50 in test [2] (read-out: IC50 range, HCV NS3/4A protease enzyme assay) fell in the range of 100 to 1000 nM.

With `C=CC1C[C@]1(NC(=O)[C@@H]1C[C@@H](OC(=O)Nc2cc(Cl)ccc2OC)CN1C(=O)[C@@H](NC(=O)OC(C)(C)C)C(C)(C)C)C(=O)NS(=O)(=O)C1CC1` (stereo partly drawn) [Compound 9, BocNH-P3(t-BuGly)-P2(Hyp(O—CO(NH—(5-chloro-2-methoxy-phenyl))))-P1(1R,2S VinylAcca)—CONHSO2Cyclopropane], the concentration for a half-maximal effect (EC50) in test [1] (Hepatitis C virus, Huh-7, 96 h) was in the range of 100 to 1000 nM. Also, the IC50 in test [2] (setting [3]) was below 100 nM.
